From patent US20240116985A1, “STAPLED PEPTIDES AND METHODS THEREOF” (priority 2020, published 2024)
Converted amounts (≈) assume the structure as drawn. Read-outs that look alike come from different tables or passages of the source.

Assays:
[1] = CHI Log D procedure; format: physicochemical; details: for logD / chromatographic logD: pH 7.4, CHI Log D; for CHI Log D: pH 7.4
[2] = Solubility in PBS; format: physicochemical
In short: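 The PBS solution was ultracentrifuged and the supernatant analyzed by HPLC. Its peak area was divided by that of a 50 μM peptide DMSO reference injection and multiplied by 50 uM to give solubility.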

| SMILES | CHI Log D [1] | Solubility [2] | other results |
| --- | --- | --- | --- |
| CC(=O)N1CCC[C@]12CC=CCCCC1(CCCC=CCCCOC(=O)N3CC[C@@](C(=O)N[C@@H](Cc4ccsc4)C(=O)N[C@@H](Cc4csc5ccccc45)C(=O)N[C@@H](CCC(N)=O)C(=O)N[C@H](C)C(=O)N[C@@H](C)C(=O)N[C@@H](C)C(N)=O)(C3)NC(=O)[C@H](CC(N)=O)NC(=O)[C@H](Cc3ccccc3)NC(=O)[C@H](C)NC(=O)[C@H](C)NC(=O)[C@H](CC(=O)O)NC(=O)[C@H](CC(=O)O)NC1=O)NC(=O)[C@H](CC(C)(C)C)NC(=O)[C@H](CC(=O)O)NC2=O (stereo partly drawn) [I-871, Ac-PL3-Asp-Npg-B5-Asp-Asp-Ala-Ala-Phe-Asn-PyrS2-3Thi-BztA-Gln-dAla-Ala] | – | – | logD [1]: 1.92; Solubility ([2]; Solubility (uM)): 45 µM (≈ 95.9 µg/mL) |
| CC(=O)N1CCC[C@]12CC=CCCCC1(CCCC=CCCCCCC[C@@](C)(C(=O)N[C@@H](Cc3ccc(C(N)=O)cc3)C(=O)N[C@@H](Cc3csc4ccccc34)C(=O)N[C@@H](CCC(N)=O)C(N)=O)NC(=O)[C@H](C(C)C)NC(=O)[C@H](Cc3ccccc3)NC(=O)[C@H](C)NC(=O)[C@H](C)NC(=O)[C@H](CC(=O)O)NC(=O)[C@H](CC(=O)O)NC1=O)NC(=O)[C@H](C)NC(=O)[C@H](CC(=O)O)NC2=O (stereo partly drawn) [I-337, Ac-PL3-Asp-Ala-B5-Asp-Asp-Ala-Ala-Phe-Val-S8-4CBMF-BztA-Gln-NH2] | 1.579 | 48 µM (≈ 88.4 µg/mL) | – |
| CC(=O)N1CCC[C@]12CC=CCCCC1(CCCC=CCCCCCC[C@@](C)(C(=O)N[C@@H](Cc3ccsc3)C(=O)N[C@@H](Cc3csc4ccccc34)C(=O)N[C@@H](CCC(N)=O)C(=O)N[C@@H](C)C(=O)N[C@@H](C)C(=O)N[C@H](C)C(N)=O)NC(=O)[C@H](CC(N)=O)NC(=O)[C@H](Cc3ccccc3)NC(=O)[C@H](C)NC(=O)[C@H](C)NC(=O)[C@H](CC(=O)O)NC(=O)[C@H](CC(=O)O)NC1=O)NC(=O)[C@H](CC(C)(C)C)NC(=O)[C@H](CC(=O)O)NC2=O (stereo partly drawn) [I-877, Ac-PL3-Asp-Npg-B5-Asp-Asp-Ala-Ala-Phe-Asn-S8-3Thi-BztA-Gln-Ala-Ala] | – | 50 µM (≈ 104 µg/mL) | logD [1]: 2.35 |
| CC[C@H](C)[C@@H]1NC(=O)[C@H](Cc2ccccc2)NC(=O)[C@]2(CC=CCCCC3(CCCC=CCCCCCC[C@@](C)(C(=O)N[C@@H](Cc4ccccc4)C(=O)N[C@@H](Cc4csc5ccccc45)C(=O)N[C@@H](CCC(N)=O)C(N)=O)NC(=O)[C@H](CCC(N)=O)NC(=O)[C@H](CC(=O)O)NC(=O)[C@H](C)NC(=O)[C@H](C)NC(=O)[C@H](CCC(=O)O)NC(=O)[C@H](CC(=O)O)NC3=O)NC1=O)CCCN2C(C)=O (stereo partly drawn) [I-588, Ac-PL3-Phe-Ile-B5-Asp-Glu-Ala-Ala-Asp-Gln-S8-Phe-BztA-Gln-NH2] | – | – | chromatographic logD [1]: 2.87; solubility at 15 min ([2]; Solubility (uM)): 49 µM (≈ 92.3 µg/mL) |
| CC(=O)N1CCC[C@]12CC=CCCCC1(CCCC=CCCCCCC[C@@](C)(C(=O)N[C@@H](C)C(=O)N[C@@H](Cc3c[nH]c4ccccc34)C(=O)N[C@@H](CCC(N)=O)C(N)=O)NC(=O)[C@H](C(C)C)NC(=O)[C@H](Cc3ccccc3)NC(=O)[C@H](C)NC(=O)[C@H](C)NC(=O)[C@H](CC(=O)O)NC(=O)[C@H](CC(=O)O)NC1=O)NC(=O)[C@H](C)NC(=O)[C@H](CC(=O)O)NC2=O (stereo partly drawn) [I-355, Ac-PL3-Asp-Ala-B5-Asp-Asp-Ala-Ala-Phe-Val-S8-Ala-Trp-Gln-NH2] | 1.606 | 49 µM (≈ 83.5 µg/mL) | – |
| CC(=O)N1CCC[C@]12CC=CCCCC1(CCCC=CCCCCCC[C@@](C)(C(=O)N[C@@H](Cc3cccc(F)c3F)C(=O)N[C@@H](Cc3csc4ccccc34)C(=O)N[C@@H](CCC(N)=O)C(N)=O)NC(=O)[C@H](C(C)C)NC(=O)[C@H](Cc3ccccc3)NC(=O)[C@H](C)NC(=O)[C@H](C)NC(=O)[C@H](CCC(=O)O)NC(=O)[C@H](CC(=O)O)NC1=O)NC(=O)[C@H](C)NC(=O)[C@H](CC(=O)O)NC2=O (stereo partly drawn) [I-389, Ac-PL3-Asp-Ala-B5-Asp-Glu-Ala-Ala-Phe-Val-S8-23FF-BztA-Gln-NH2] | 2.868 | 17 µM (≈ 31.4 µg/mL) | – |
| CC[C@H](C)[C@@H]1NC(=O)[C@H](CC(=O)O)NC(=O)[C@]2(CC=CCCCC3(CCCC=CCCCCCC[C@@](C)(C(=O)N[C@@H](CC(=O)O)C(=O)N[C@@H](Cc4csc5ccccc45)C(=O)N[C@@H](CCC(N)=O)C(N)=O)NC(=O)[C@H](CCC(N)=O)NC(=O)[C@H](Cc4ccccc4)NC(=O)[C@H](C)NC(=O)[C@H](C)NC(=O)[C@H](CCC(=O)O)NC(=O)[C@H](Cc4ccccc4)NC3=O)NC1=O)CCCN2C(C)=O (stereo partly drawn) [I-587, Ac-PL3-Asp-Ile-B5-Phe-Glu-Ala-Ala-Phe-Gln-S8-Asp-BztA-Gln-NH2] | – | 50 µM (≈ 94.2 µg/mL) | chromatographic logD [1]: 2.15 |
| CC(=O)N1CCC[C@]12CC=CCCCC1(CCCC=CCCCCCC[C@@](C)(C(=O)N[C@@H](Cc3ccccc3)C(=O)N[C@@H](Cc3csc4ccccc34)C(=O)N[C@@H](CCC(N)=O)C(N)=O)NC(=O)[C@H](CCC(N)=O)NC(=O)[C@H](Cc3ccccc3)NC(=O)[C@H](C)NC(=O)[C@H](C)NC(=O)[C@H](CCC(=O)O)NC(=O)[C@H](CC(=O)O)NC1=O)NC(=O)[C@H](C)NC(=O)[C@H](Cc1nn[nH]n1)NC2=O (stereo partly drawn) [I-417, Ac-PL3-tetz-Ala-B5-Asp-Glu-Ala-Ala-Phe-Gln-S8-Phe-BztA-Gln-NH2] | 2.085 | 30 µM (≈ 56 µg/mL) | – |
| CC(=O)N1CCC[C@]12CC=CCCCC1(CCCC=CCCCCCC[C@@](C)(C(=O)N[C@@H](Cc3ccccc3)C(=O)N[C@@H](Cc3csc4ccccc34)C(=O)N[C@@H](CCC(N)=O)C(N)=O)NC(=O)[C@H](CCC(N)=O)NC(=O)[C@H](Cc3ccccc3)NC(=O)[C@H](C)NC(=O)[C@H](C)NC(=O)[C@H](CCC(=O)O)NC(=O)[C@H](CCO)NC1=O)NC(=O)[C@H](C)NC(=O)[C@H](CC(=O)O)NC2=O (stereo partly drawn) [I-496, Ac-PL3-Asp-Ala-B5-Hse-Glu-Ala-Ala-Phe-Gln-S8-Phe-BztA-Gln-NH2] | 2.456 | 41 µM (≈ 74.9 µg/mL) | – |
| CC(=O)N1CCC[C@]12CC=CCCCC1(CCCC=CCCCCCC[C@@](C)(C(=O)N[C@@H](Cc3ccccc3)C(=O)N[C@@H](Cc3c[nH]c4ccccc34)C(=O)N[C@@H](CCC(N)=O)C(N)=O)NC(=O)[C@H](C(C)C)NC(=O)[C@H](Cc3cn(C)cn3)NC(=O)[C@H](C)NC(=O)[C@H](C)NC(=O)[C@H](CC(=O)O)NC(=O)[C@H](CC(=O)O)NC1=O)NC(=O)[C@H](C)NC(=O)[C@H](CC(=O)O)NC2=O (stereo partly drawn) [I-330, Ac-PL3-Asp-Ala-B5-Asp-Asp-Ala-Ala-1meH-Val-S8-Phe-Trp-Gln-NH2] | 2.047 | 21 µM (≈ 37.5 µg/mL) | – |
| CC(=O)N1CCC[C@]12CC=CCCCC1(CCCC=CCCCCCC[C@@](C)(C(=O)N[C@@H](Cc3ccc(C(=O)O)cc3)C(=O)N[C@@H](Cc3csc4ccccc34)C(=O)N[C@@H](CCC(N)=O)C(N)=O)NC(=O)[C@H](C(C)C)NC(=O)[C@H](Cc3ccccc3)NC(=O)[C@H](C)NC(=O)[C@H](C)NC(=O)[C@H](CC(=O)O)NC(=O)[C@H](CC(=O)O)NC1=O)NC(=O)[C@H](C)NC(=O)[C@H](CC(=O)O)NC2=O (stereo partly drawn) [I-339, Ac-PL3-Asp-Ala-B5-Asp-Asp-Ala-Ala-Phe-Val-S8-4COOHF-BztA-Gln-NH2] | 1.328 | 50 µM (≈ 92.1 µg/mL) | – |
| CC(=O)N1CCC[C@]12CC=CCCCC1(CCCC=CCCCCCC[C@@](C)(C(=O)N[C@@H](Cc3ccsc3)C(=O)N[C@@H](Cc3csc4ccccc34)C(=O)N[C@@H](CCC(N)=O)C(=O)N[C@@H](C)C(=O)N[C@@H](C)C(=O)N[C@@H](C)C(N)=O)NC(=O)[C@H](CC(N)=O)NC(=O)[C@H](Cc3ccccc3)NC(=O)[C@H](C)NC(=O)[C@H](C)NC(=O)[C@H](CC(=O)O)NC(=O)[C@H](CC(=O)O)NC1=O)NC(=O)[C@H](CC(C)(C)C)NC(=O)[C@H](CC(=O)O)NC2=O (stereo partly drawn) [I-874, Ac-PL3-Asp-Npg-B5-Asp-Asp-Ala-Ala-Phe-Asn-S8-3Thi-BztA-Gln-Ala-Ala] | – | 50 µM (≈ 104 µg/mL) | logD [1]: 2.31 |
| CC(=O)N1CCC[C@]12CC=CCCCC1(CCCC=CCCCCCC[C@@](C)(C(=O)N[C@@H](CC(N)=O)C(=O)N[C@@H](Cc3c[nH]c4ccccc34)C(=O)N[C@@H](CCC(N)=O)C(N)=O)NC(=O)[C@H](C(C)C)NC(=O)[C@H](Cc3ccccc3)NC(=O)[C@H](C)NC(=O)[C@H](C)NC(=O)[C@H](CC(=O)O)NC(=O)[C@H](CC(=O)O)NC1=O)NC(=O)[C@H](C)NC(=O)[C@H](CC(=O)O)NC2=O (stereo partly drawn) [I-284, Ac-PL3-Asp-Ala-B5-Asp-Asp-Ala-Ala-Phe-Val-S8-Asn-Trp-Gln-NH2] | – | – | chromatographic logD [1]: 1.52; Solubility ([2]; Solubility (uM)): 40 µM (≈ 69.9 µg/mL) |
| CC(=O)N1CCC[C@]12CC=CCCCC1(CCCC=CCCCCCC[C@@](C)(C(=O)N[C@@H](Cc3ccccc3)C(=O)N[C@@H](Cc3csc4ccccc34)C(=O)N[C@@H](CCC(N)=O)C(N)=O)NC(=O)[C@H](CC(N)=O)NC(=O)[C@H](Cc3ccccc3)NC(=O)[C@H](C)NC(=O)[C@H](C)NC(=O)[C@H](CCC(=O)O)NC(=O)[C@H](CNS(C)(=O)=O)NC1=O)NC(=O)[C@H](C)NC(=O)[C@H](CC(=O)O)NC2=O (stereo partly drawn) [I-530, Ac-PL3-Asp-Ala-B5-[MeSO2]Dap-Glu-Ala-Ala-Phe-Asn-S8-Phe-BztA-Gln-NH2] | 2.935 | 50 µM (≈ 93.8 µg/mL) | – |
| CC(=O)N1CCC[C@]12CC=CCCCC1(CCCC=CCCCCCC[C@@](C)(C(=O)N[C@@H](Cc3ccccc3)C(=O)N[C@@H](Cc3c[nH]c4ccccc34)C(=O)N[C@@H](CCC(N)=O)C(N)=O)NC(=O)[C@H](C(C)C)NC(=O)[C@H](Cc3ccccc3)NC(=O)[C@H](C)NC(=O)[C@H](C)NC(=O)[C@H](CC(=O)O)NC(=O)[C@H](CC(=O)O)NC1=O)NC(=O)[C@H](C)NC(=O)[C@H](C)NC2=O (stereo partly drawn) [I-349, Ac-PL3-Ala-Ala-B5-Asp-Asp-Ala-Ala-Phe-Val-S8-Phe-Trp-Gln-NH2] | 2.415 | 49 µM (≈ 85.1 µg/mL) | – |
| CC(=O)N1CCC[C@]12CC=CCCCC1(CCCC=CCCCCCC[C@@](C)(C(=O)N[C@@H](Cc3cccc(F)c3)C(=O)N[C@@H](Cc3c[nH]c4ccccc34)C(=O)N[C@@H](CCC(N)=O)C(N)=O)NC(=O)[C@H](CCC(N)=O)NC(=O)[C@H](Cc3ccsc3)NC(=O)[C@H](C)NC(=O)[C@H](C)NC(=O)[C@H](CCC(=O)O)NC(=O)[C@H](CC(=O)O)NC1=O)NC(=O)[C@H](C)NC(=O)[C@H](CC(=O)O)NC2=O (stereo partly drawn) [I-451, Ac-PL3-Asp-Ala-B5-Asp-Glu-Ala-Ala-3Thi-Gln-S8-3FF-Trp-Gln-NH2] | 1.88 | 50 µM (≈ 92.4 µg/mL) | – |
